Laboratory results taken from patent US20240041832A1, “METHODS AND COMPOSITIONS FOR TREATING EYE DISEASES” (JENIVISION INC., priority 2021, published 2024).
Like-named read-outs stand apart in the source and are kept apart here.

Legend:
[1] = Rabbit pharmacokinetics and ocular tissue distribution, eye-drop to both eyes (Example 1); type: in vivo, New Zealand rabbits
Method: A retinal bioavailability study was performed on 4,5-dihydro-N-[4-[[4-(1-methylethoxy) phenyl] methyl] phenyl]-1H-imadazol-2-amine (assigned the coded notation JV-DE1). This study provided an indication that the compound formulated in an eye-drop and administered bilaterally to the anterior ocular surface was bioavailable in the retina. This pharmacokinetics and ocular tissue distribution study of JV-DE1 was performed in New Zealand rabbits. Briefly, […] (male) received JV-DE1 via ocular instillation to both eyes at a dose of 0.12 mg/eye. Blood samples (1 mL) were collected at 0, 0.5, 2, 4, 8, and 24 h after single ocular administration to both eyes. At each time point, one animal was euthanized after blood collection and then eye tissue samples were collected from both eyes. Aqueous humor, bulbar conjunctiva, anterior sclera, posterior sclera (in the optic nerve exit region), retina, cornea, ciliary body, and iris were collected and weighed. The samples were then stored in an ultra-low temperature freezer. Drug concentrations in the samples were subsequently determined by the LC-MS/MS method. Results are shown in FIG. 2A (right eye) and FIG. 2B (left eye).
JV-DE1 was widely distributed in the ocular tissues, and with no meaningful difference between the left and right eye, since drug administration was bilateral. JV-DE1 ocular tissue levels were well-maintained over an 8 hour period post-dosing but had declined by 24 hours. The cornea, anterior sclera, and bulbar conjunctiva had the highest levels of JV-DE1 in both eyes, whereas JV-DE1 levels were lower in those structures located within the globe. The most significant finding was the unexpectedly high levels of JV-DE1 in the retina and the posterior sclera, which underlies and supports the retina.

[2] = Rabbit bio-disposition, eye-drop to one eye (OD) (Example 2); type: in vivo, New Zealand rabbits
Method: In order to verify that drug delivery of JV-DE1 was essentially confined to ocular redistribution other than via the blood circulation following contact of the eye-drop with the anterior segment ocular surface tissues, a monocular drug application study was performed. JV-DE1 was formulated in 2.4% CrEL and 0.2% glycerol in pH 7.6 TBS. CrEL is polyoxyl 35 castor oil. Other names for polyoxyl 35 castor oil include macrogolglycerol ricinoleate, PEG-35 castor oil, and […]. Briefly, for the bio-disposition experiment, JV-DE1 was administered to one eye (OD) via ocular instillation to said eye at a dose of 0.12 mg/eye. Blood samples (1 mL) and were collected at 0, 0.5, 2, 6, and 24 h after a single eye-drop ocular administration. At each of the above time points, one animal was euthanized after blood collection and selected eye tissue samples were collected from both eyes. Aqueous humor, bulbar conjunctiva, anterior sclera, posterior sclera (in the optic nerve exit region), retina, cornea, ciliary body, and iris were collected and weighed. The samples were then stored in an ultra-low temperature freezer. JV-DE1 concentrations in the samples were subsequently determined by the LC-MS/MS method.
JV-DE1 was widely distributed in the ocular tissues of the eye (OD) that received the compound. The concentration of JV-DE1 in ocular tissue levels were well-maintained over an 8 hour period post-dosing but had declined by 24 hours. The cornea, anterior sclera, and bulbar conjunctiva had the highest levels of JV-DE1 in the treated eye, which was about 100-fold greater than the JV-DE1 levels in the ciliary body/iris, posterior sclera, and retina. The most significant finding was the unexpected level of JV-DE1 in the vitreous humor. […] JV-DE1 levels in the retina of the contralateral, untreated eye were, however, one-tenth of those in the treated eye. […] Only about 10% achieved the retina by delivery from the bloodstream.

[3] = Biodistribution of JV-DE1 after single periorbital skin administration (Example 3); type: in vivo, cynomolgus monkeys; conditions: for concentration at 3 h / concentration at 6 h / concentration at 0.5 h / concentration at 24 h: topical; for concentration at 3 h: 160.58 μg/right eye; for concentration at 6 h: 162.23 μg/right eye; for concentration at 0.5 h: 179.12 μg/right eye; for concentration at 24 h: 159.26 μg/right eye
Method: An additional experiment on JV-DE1 involving determining its bio-disposition following topical application to the periorbital skin that surrounds the anterior portion of the globe was performed.
JV-DE1 was formulated in medium chain triglyceride (MCT) oil. An amount of about 0.16 mg of JV-DE1 formulation was administered to one eye (OD) by circumferential topical application to the periorbital skin that surrounds the anterior portion of the globe. […] The following representative tissues were collected; upper eyelid, cornea, retina, and vitreous humor. JV-DE1 concentrations in the samples were subsequently determined by the LC-MS/MS method. The results are summarized below in Table 1

vascular IP receptor = vascular IP receptor (Homo sapiens, UniProt P43119); conditions: Jones R L et al. (2006); cited from earlier work
vascular IP receptor, sequence (P43119 whole entry): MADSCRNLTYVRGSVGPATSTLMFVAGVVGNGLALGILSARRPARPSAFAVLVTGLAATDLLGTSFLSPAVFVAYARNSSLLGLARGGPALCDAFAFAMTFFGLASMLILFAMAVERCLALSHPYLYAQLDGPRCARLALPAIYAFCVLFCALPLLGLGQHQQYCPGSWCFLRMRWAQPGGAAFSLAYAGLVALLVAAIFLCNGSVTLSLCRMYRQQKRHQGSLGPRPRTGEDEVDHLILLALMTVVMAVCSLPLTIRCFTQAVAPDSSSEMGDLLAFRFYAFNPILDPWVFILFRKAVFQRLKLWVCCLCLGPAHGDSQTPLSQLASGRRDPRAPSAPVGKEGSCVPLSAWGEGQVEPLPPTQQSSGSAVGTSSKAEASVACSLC

PAF receptor = PAF receptor (Homo sapiens, UniProt P25105); conditions: Bley K R et al. (2006); cited from earlier work
PAF receptor, sequence (P25105 whole entry): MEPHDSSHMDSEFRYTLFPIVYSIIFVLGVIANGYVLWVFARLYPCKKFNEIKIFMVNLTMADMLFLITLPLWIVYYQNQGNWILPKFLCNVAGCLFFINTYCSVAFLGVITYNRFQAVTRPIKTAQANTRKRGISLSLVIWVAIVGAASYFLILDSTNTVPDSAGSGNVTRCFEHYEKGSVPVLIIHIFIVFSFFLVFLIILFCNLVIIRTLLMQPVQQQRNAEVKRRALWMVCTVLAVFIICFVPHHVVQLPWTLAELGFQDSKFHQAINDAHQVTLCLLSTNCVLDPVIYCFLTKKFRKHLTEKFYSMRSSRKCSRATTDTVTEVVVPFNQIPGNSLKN

IP receptor = biological target: T1, IP receptor (Homo sapiens, UniProt P43119); conditions: U.S. Pat. No. 9,321,745; cited from earlier work
T1 construct: VEGF release from human immune cells when macrophages were primed with TNFα; endogenous in cells; host or cells: human macrophages primed with TNFα
T1 sequence (P43119 whole entry): as the sequence (P43119 whole entry) above

[4] = 0.5 h, 179.120 μg/right eye periorbital skin
[5] = 3 h, 160.580 μg/right eye periorbital skin
[6] = 6 h, 162.230 μg/right eye periorbital skin
[7] = 24 h, 159.260 μg/right eye periorbital skin

With `CC(C)Oc1ccc(Cc2ccc(NC3=NCCN3)cc2)cc1` [JV-DE1, 4,5-dihydro-N-[4-[[4-(1-methylethoxy)phenyl]methyl]phenyl]-1H-imadazol-2-amine] the “drug level delivered to the anterior chamber of the eye as an eye drop” value ([1]; eye drop) was greater than 1 µg/g, the “biodistribution dose gradient, eye drops” value ([1]; eye drops) was “cornea≥conjunctiva≥anterior sclera≈iris≥ciliary body≥posterior sclera≥aqueous humor≥retina” and the “retina distribution after eye-drop” value ([1]; eye-drop administration) was “less than 60 ng/g”. For the same compound, the Cmax ([1]; male, New Zealand, rabbit, plasma, topical or ocular, ocular instillation to both eyes, 0.12 mg/eye, at 0.5 hours post-dose) was roughly 2 ng/mL, the “plasma clearance at 24 hours post dose” value ([1]; ocular instillation to both eyes, 0.12 mg/eye) was “good clearance” and the Cmax ([2]; New Zealand, rabbit, plasma, topical or ocular, ocular instillation to one eye (OD), 0.12 mg/eye, at 0.5 hours post-dose) was 0.95 ng/mL. The “retina level of contralateral untreated eye relative to treated eye” value ([2]; OS vs OD) was “one-tenth”, the “share of drug reaching the retina by delivery from the bloodstream” value ([2]; monocular eye-drop) was “about 10%” and the “share of drug reaching the retina by intra-global redistribution of the eye-drop” value ([2]; monocular eye-drop) was 90%. The “tissues with detectable compound in contralateral untreated eye (OS)” value ([2]; monocular eye-drop to OD) was “detected only in the cornea, posterior sclera, and retina”, the “time to complete clearance from plasma” value ([2]; ocular instillation to one eye (OD), 0.12 mg/eye) was no more than 24 h and the “levels in cornea, anterior sclera and bulbar conjunctiva relative to ciliary body/iris, posterior sclera and retina” value ([2]; treated eye (OD)) was “about 100 fold”. The “% of administered dose, Right cornea” value [3, 4] was 0.00%, the “% of administered dose, Right retina” value [3, 4] was 0.09% and the “% of administered dose, Right upper eyelid” value [3, 4] was 0.64%. The “% of administered dose, Right vitreous humor” value [3, 4] was 4.67%, the “% of administered dose, Right cornea” value [3, 5] was 0.00% and the “% of administered dose, Right retina” value [3, 5] was 0.26%. The “% of administered dose, Right upper eyelid” value [3, 5] was 1.50%, the “% of administered dose, Right vitreous humor” value [3, 5] was 2.91% and the “% of administered dose, Right cornea” value [3, 6] was 0.00%. The “% of administered dose, Right retina” value [3, 6] was 0.25%, the “% of administered dose, Right upper eyelid” value [3, 6] was 0.48% and the “% of administered dose, Right vitreous humor” value [3, 6] was 3.13%. For the same compound, the “% of administered dose, Right cornea” value [3, 7] was 0.00%, the “% of administered dose, Right retina” value [3, 7] was 0.05% and the “% of administered dose, Right upper eyelid” value [3, 7] was 0.60%. For the same compound, the “% of administered dose, Right vitreous humor” value [3, 7] was 1.79%, the “Drug Concentration in Plasma” value ([3]; 24 h, 159.260 μg/right eye periorbital skin, animal 104, LLOQ 0.1 ng/ml) was “BLQ” and the “drug level in retina at all tested time points” value ([3]; NIODP 165.30±4.65 μg/eye (OD)) was “greater than 1000 ng/g”. For the same compound, the “drug level delivered to retina via NIODP” value ([3]; all tested time points) was greater than 1 µg/g, the plasma concentrations ([3]; all time points, LLOQ 0.1 ng/ml) was “less than 0.3 ng/ml” and the Cmax ([3]; cynomolgus monkey, plasma, topical or ocular, 0.16 mg, single dose monocular periorbital administration, over the 6 hour post-dose period) was 0.13 to 0.26 ng/mL. The concentration at 3 h ([3]; cynomolgus monkey, plasma, 3 h, 160.580 μg/right eye periorbital skin, animal 102, read-out: Drug Concentration in Plasma) was 0.21 ng/mL, the concentration at 6 h ([3]; cynomolgus monkey, plasma, 6 h, 162.230 μg/right eye periorbital skin, animal 103, read-out: Drug Concentration in Plasma) was 0.26 ng/mL and the concentration at 0.5 h ([3]; cynomolgus monkey, plasma, 0.5 h, 179.120 μg/right eye periorbital skin, animal 101, read-out: Drug Concentration in Plasma) was 0.131 ng/mL. The concentration at 24 h ([3]; cynomolgus monkey, right cornea, 24 h, 159.260 μg/right eye periorbital skin, read-out: Drug Concentration in Tissue, Right cornea) was 5.5 ng/g, the concentration at 3 h ([3]; cynomolgus monkey, right cornea, 3 h, 160.580 μg/right eye periorbital skin, read-out: Drug Concentration in Tissue, Right cornea) was 27.9 ng/g and the concentration at 6 h ([3]; cynomolgus monkey, right cornea, 6 h, 162.230 μg/right eye periorbital skin, read-out: Drug Concentration in Tissue, Right cornea) was 45.5 ng/g. For the same compound, the concentration at 0.5 h ([3]; cynomolgus monkey, right cornea, 0.5 h, 179.120 μg/right eye periorbital skin, read-out: Drug Concentration in Tissue, Right cornea) was 39.6 ng/g, the concentration at 24 h ([3]; cynomolgus monkey, right retina, 24 h, 159.260 μg/right eye periorbital skin, read-out: Drug Concentration in Tissue, Right retina) was 1620 ng/g and the concentration at 3 h ([3]; cynomolgus monkey, right retina, 3 h, 160.580 μg/right eye periorbital skin, read-out: Drug Concentration in Tissue, Right retina) was 16700 ng/g. For the same compound, the concentration at 6 h ([3]; cynomolgus monkey, right retina, 6 h, 162.230 μg/right eye periorbital skin, read-out: Drug Concentration in Tissue, Right retina) was 23900 ng/g, the concentration at 0.5 h ([3]; cynomolgus monkey, right retina, 0.5 h, 179.120 μg/right eye periorbital skin, read-out: Drug Concentration in Tissue, Right retina) was 9300 ng/g and the concentration at 24 h ([3]; cynomolgus monkey, right upper eyelid, 24 h, 159.260 μg/right eye periorbital skin, read-out: Drug Concentration in Tissue, Right upper eyelid) was 11600 ng/g. The concentration at 3 h ([3]; cynomolgus monkey, right upper eyelid, 3 h, 160.580 μg/right eye periorbital skin, read-out: Drug Concentration in Tissue, Right upper eyelid) was 32500 ng/g, the concentration at 6 h ([3]; cynomolgus monkey, right upper eyelid, 6 h, 162.230 μg/right eye periorbital skin, read-out: Drug Concentration in Tissue, Right upper eyelid) was 7950 ng/g and the concentration at 0.5 h ([3]; cynomolgus monkey, right upper eyelid, 0.5 h, 179.120 μg/right eye periorbital skin, read-out: Drug Concentration in Tissue, Right upper eyelid) was 26500 ng/g. For the same compound, the concentration at 24 h ([3]; cynomolgus monkey, right vitreous humor, 24 h, 159.260 μg/right eye periorbital skin, read-out: Drug Concentration in Tissue, Right vitreous humor) was 19 ng/g, the concentration at 3 h ([3]; cynomolgus monkey, right vitreous humor, 3 h, 160.580 μg/right eye periorbital skin, read-out: Drug Concentration in Tissue, Right vitreous humor) was 7.79 ng/g and the concentration at 6 h ([3]; cynomolgus monkey, right vitreous humor, 6 h, 162.230 μg/right eye periorbital skin, read-out: Drug Concentration in Tissue, Right vitreous humor) was 3.9 ng/g. The concentration at 0.5 h ([3]; cynomolgus monkey, right vitreous humor, 0.5 h, 179.120 μg/right eye periorbital skin, read-out: Drug Concentration in Tissue, Right vitreous humor) was 15.2 ng/g, the “biodistribution via NIODP” value ([3]; periorbital skin) was “eyelid≥retina>>cornea≥vitreous humor” and the “time to complete clearance from plasma” value ([3]; single dose monocular periorbital administration) was no more than 24 h. The pA2 (vascular IP receptor) was 8.2, the pKi (PAF receptor) was 7.9 and the “VEGF release induced by cicaprost in the presence of TNFα” value (IP receptor) was “abolished”.
